Source: patent US10968183B2, “Small molecule FIEL1 inhibitor in inflammatory and fibrotic lung injury” (UNIVERSITY OF PITTSBURGH—OF THE COMMONWEALTH SYSTEM OF …, priority 2015, dated 2021)

How the values were obtained:
[1] = test system: bleomycin-induced lung injury in C57BL/6J mice; experiment: Bleomycin lung fibrosis model in mice; format: in vivo; conditions: estimated 5 mg/kg/d; for lung (pulmonary) fibrosis: 7-21 days
Procedure: FIG. 7A. […] FIG. 7B. Structures of the BC-1480 backbone and lead compound BC-1485. FIG. 7C. FIEL1 protein was HIS-purified from FIEL1 expression in 293T cells using cobalt beads. Beads were then extensively washed prior to exposure to BC-1480 or BC-1485 at different concentrations (10^−4 to 100 μM). Purified PIAS4 protein was then incubated with drug-bound FIEL1 beads overnight. Beads were washed, and proteins were eluted and resolved on SDS-PAGE. The relative amounts of PIAS4 detected in the pull-downs was normalized to loading and quantified (n=2). FIG. 7D. MLE cells were exposed to BC-1480 or BC-1485 at various concentrations for 18 h. Cells were then collected and immunoblotted. FIGS. 7E-J. C57BL/6J mice were administered with bleomycin (0.05 U) for 7-21 days. Compounds BC-1480 and BC-1485 were given to mice through drinking water with an estimated dose of 5 mg/kg/d. Mice were euthanized, and lungs were lavaged with saline, harvested, and then homogenized. Lavage proteins, CXCL1, and total cell count were measured in FIGS. 7E-G. H. Survival studies of mice that were given bleomycin and compound treatments. Mice were carefully monitored over time; moribund, preterminal animals were immediately euthanized and recorded as deceased. Kaplan-Meier survival curves were generated using SPSS software (p<0.01 compared to Vehicle). Vehicle: n=24, BC-1480: n=13, BC-1485: n=12. FIG. 7I. Hydroxyproline contents were measured in lungs from 7, 14, and 21d after bleomycin challenge. FIG. 7J. Trichrome staining was performed on lung samples from E. Original magnification, ×10. *p<0.05 compared to Vehicle (t-test). Data are an average of two experiments (FIGS. 7E-J, 4-8 mice/group)
C57BL/6J mice were administered i.t. with bleomycin (0.05 U) for 7-21 days. Compounds BC-1480 and BC-1485 were given to mice through drinking water with an estimated dose of 5 mg/kg/d. Mice were then euthanized, and lungs were lavaged with saline, harvested, and then homogenized. Lavage IL-6 was measured in (FIG. 16A). Lavage cells were also processed for Wright-Giemsa stain; Lavage macrophages, neutrophils and lymphocytes were counted and graphed (FIGS. 16B-16D). H&E staining was performed on lung samples from A. Original magnification, ×10. *p<0.05 compared to Vehicle (t test). Data are an average of two experiments (A-E, 4-8 mice/group).
Murine lungs were dried and weighed prior to digestion with HCl. Hydroxyproline concentrations were measuring using methods previously described in Kesava Reddy et al., Clinical Biochemistry, 29(3): 225-229 (1996), and Neuman et al., J. of Biol. Chem., 184(1): 299-306 (1950). Hydroxyproline content was normalized to dry lung weight.
All procedures were approved by the University of Pittsburgh Institutional Animal Care and Use Committee. For fibrosis studies, male C57BL/6J mice were deeply anesthetized using a ketamine/xylazine mixture, and the larynx was well visualized under a fiber optic light source before endotracheal intubation with a 3/400 24-gauge plastic catheter. 10^7 CFU of lentivirus encoding genes for Empty (E), FIEL1, CON shRNA, or KIAA0317 shRNA was given i.t. for 144 h before administration of bleomycin (0.02 U˜0.05 U i.t.) for up to 21 days. Animals were euthanized and assayed for BAL protein, cell count, cytokines, and lung infiltrates. Survival studies were performed on mice that were given bleomycin (0.02 U˜0.05 U i.t.). Mice were carefully monitored over time; moribund, preterminal animals were immediately euthanized and recorded as deceased. For drug studies, mice were deeply anesthetized as above. Bleomycin (0.05 U i.t.) was given i.t. before BC-1480 or BC-1485 (5 mg/kg/d) was administered to the mice through their drinking water. 7-21d later, animals were euthanized and analyzed as above.

[2] = test system: DSS induced acute colonic inflammation in C57BL6 mice; experiment: Dextran sulfate sodium induced acute colonic inflammation in mice; format: in vivo; conditions: 2.5% DSS in water up to 7 days; drinking water 30 ug/ml, ~5 mg/kg/d
Procedure: C57BL6 mice were fed with water ad lib containing 2.5% dextran sulfate sodium (DSS) for up to 7 days. Mice were treated with either vehicle (control) or BC-1261 (administered into drinking water at 30 ug/ml, ˜5 mg/kg/d dosing). Colonic tissues were also analysed for TNFα, IL1 and IL6 shown in FIGS. 20E H&E staining was performed on colonic sections. The data in FIG. 20F represent n=6 mice/group, *P<0.05 versus DSS and **P<0.05 versus control. […] FIG. 20G provides pictures of the tissues at interest.
C57BL6 mice were fed with water ad lib containing 2.5% dextran sulfate sodium (DSS) for up to 7 days. Mice were treated with either vehicle (control) or BC-1261 (administered into drinking water at 30 ug/ml, ˜5 mg/kg/d dosing). Mice were then euthanized, the length of the colon and weight of the spleen were measured and graphed, shown in FIG. 20 B-D. Colonic tissues were also analysed for TNFα, IL1 and IL6 shown in FIG. 20E H&E staining was performed on colonic sections. The data in FIG. 20F represent n=6 mice/group, *P<0.05 versus DSS and **P<0.05 versus control.

[3] = bleomycin 0.05 U i.t., up to 21 days, drinking water

CC(NC(=O)c1ccc(NS(=O)(=O)c2ccc3[nH]c(=O)[nH]c3c2)cc1)C(=O)N(C)C (centres unmarked) [BC-1485]
lung hydroxyproline content ([1]; 7, 14 and 21 d after bleomycin): significant decrease
lung (pulmonary) fibrosis ([1]; bleomycin 0.05 U i.t.): marked decrease
lung (pulmonary) fibrosis ([1]; bleomycin 0.05 U i.t., listed as BC 1485): inhibition of pulmonary fibrosis
BAL CXCL1 levels [1, 3]: significantly decreased
BAL IL-6 levels [1, 3]: significantly decreased
BAL protein concentrations [1, 3]: significantly decreased
BAL total cell counts [1, 3]: significantly decreased
survival ([1]; bleomycin 0.05 U i.t., drinking water): significantly improved
lung collagen (Mason Trichrome staining) ([1]; bleomycin 0.05 U i.t.): Decreased
peribronchiolar and parenchymal fibrosis (H&E) ([1]; bleomycin 0.05 U i.t.): substantially decreased
DSS induced acute colonic inflammation [2]: effectively reduces
